Test results taken from patent US9290529B2, “Carbonic anhydrase inhibitors and method of their production” (USTAV ORGANICKE CHEMIE A BIOCHEMIE AKADEMIE VED CESKE …, priority 2011, dated 2016).

Experiments:
[1] = system: CEM-DNR; experiment: MTT cytotoxicity assay, CEM-DNR; format: cell-based, human; conditions: 72 h
Description: (§1) One of the parameters used as the basis for colorimetric assays is the metabolic activity of viable cells. For example, a microtiter assay which uses the tetrazolium salt MTT is now widely used to quantitate cell proliferation and cytotoxicity (Hájduch et al., Cytotechnology, 19, 1996, 243-245). For instance, this assay is used in drug screening programs and in chemosensitivity testing. Because tetrazolium salts are cleaved only by metabolically active cells, these assays exclusively detect viable cells. In the case of the MTT assay, yellow soluble tetrazolium salt is reduced to a coloured water-insoluble formazan salt. After it is solubilized, the formazan formed can easily and rapidly be quantified in a conventional ELISA plate reader at 570 nm (maximum absorbancy). The quantity of reduced formazan corresponds to the number of vital cells in the culture.
(§2) All cells were purchased from the […] (ATCC), unless otherwise indicated: the CEM line are highly chemosensitive T-lymphoblastic leukemia cells, K562 cells were derived from patient with […] with bcr-abl translocation, A549 line is lung adenocarcinoma, HCT116 is colorectal tumor cell line and its p53 gene knock-down counterpart (HCT116p53−) is a model of human cancers with p53 mutation frequently associated with poor prognosis. The daunorubicin resistant subline of CEM cells (CEM-DNR bulk) and paclitaxel resistant subline K562-tax were selected in our laboratory by the cultivation of maternal cell lines in increasing concentrations of daunorubicine or paclitaxel, respectively (Noskova et al., Neoplasma 49, 2002, 418). The CEM-DNR bulk cells overexpress MRP-1 protein, while K562-tax cells overexpress P-glycoprotein, both proteins belong to family of ABC transporters and are involved in primary and/or acquired multidrug resistance phenomenon (Noskova et al., Neoplasma 49, 2002, 418). The cells were maintained in Nunc/Corning 80 cm^2 plastic tissue culture flasks and cultured in cell culture medium (DMEM/RPMI 1640 with 5 g/l glucose, 2 mM glutamine, 100 U/ml penicillin, 100 μg/ml streptomycin, 10% fetal calf serum, and NaHCO3).
(§3) This assay was performed according to Hajduch et al., Anti-Cancer Drugs 10, 1997, 1007. Cell suspensions were prepared and diluted according to the particular cell type and the expected target cell density (2 500-30 000 cells/well based on cell growth characteristics). Cells were added by pipette (80 μl) into 96-well microtiter plates. Inoculates were allowed a pre-incubation period of 24 h at 37° C. and 5% CO2 for stabilization. Four-fold dilutions, in 20-μl aliquots, of the intended test concentration were added to the microtiter plate wells at time zero. All test compound concentrations were examined in duplicate. Incubation of the cells with the test compounds lasted for 72 h at 37° C., in a 5% CO2 atmosphere at 100% humidity. At the end of the incubation period, the cells were assayed using MTT. Aliquots (10 μl) of the MTT stock solution were pipetted into each well and incubated for a further 1-4 h. After this incubation period the formazan produced was dissolved by the addition of 100 μl/well of 10% aq SDS (pH=5.5), followed by a further incubation at 37° C. overnight. The optical density (OD) was measured at 540 nm with a Labsystem iEMS Reader MF. Tumor cell survival (TCS) was calculated using the following equation: TCS=(ODdrug-exposed well/mean ODcontrol wells)×100%. The TCS50 value, the drug concentration lethal to 50% of the tumor cells, was calculated from appropriate dose-response curves.

[2] = system: CCRF-CEM cells; experiment: Flow cytometric measurement of intracellular pH (pHi), CA IX negative CCRF-CEM; format: cell-based, human; conditions: carboranes at 1 μM, 24 hour incubation, control 7.362
Method: (§4) The effect of carborane CAIX (carbonic anhydrase IX) inhibitors was evaluated on colorectal cancer cell line HCT116 expressing CAIX enzyme versus CA IX negative cell line of T-lymphoblastic leukemia CCRF-CEM. Acetazolamide, a known inhibitor of CAIX, was used as a standard. HCT116/CCRF-CEM cells were cultivated in McCoy/RPMI Media supplemented with 10% FCS and antibiotics and seeded at high density ([…] per 3.5 cm dish) to induce pericellular hypoxia and thus stimulate CA IX expression. Measurement of pHi was assessed as described in Cianchi et al. [Cianchi F., et al. Selective inhibition of carbonic anhydrase IX decreases cell proliferation and induces […] apoptosis in human cancer cells. The Journal of Pharmacology and Experimental Therapeutics, 2010, Vol. 334, No. 3, 710-719].
(§5) […] The pHi was measured by flow cytometry in cell cultures pretreated with 10 μM of pH sensitive probe carboxyseminaphtorhoda-fluor-1-acetoxymethyl ester (SNARF, Invitrogen, CA) for 15 min at 37° C. After incubation, the cells were washed twice with PBS. Because the addition of bicarbonate can affect pHi, all incubation and cell washes were performed in bicarbonate-free buffer. SNARF was excited at 488 nm and emitted at 580 and 640 nm. The ratio of the emission wavelengths at 640/580 nm was then used to estimate the pHi from a calibration curve. The calibration curve was prepared by nigericin clamp technique. In this method, after the SNARF labeling of untreated cells, aliquots of cell suspensions were re-suspended in a high potassium containing buffer at specific pH (usually 6.8, 7.0, 7.2, 7.4, 7.6 and 7.8). The cell suspensions were then clamped at a specific pH value by the addition of 0.03 μM nigericin (Sigma-Aldrich). Nigericin is a ionophore that allows the exchange of H for K ions, thus abolishing the pH gradient across the cell membrane. When the internal and external K concentrations are approximately equal, the pH rapidly equilibrates to the pH of the bathing solution. A total of 20,000 events were acquired on a FACS ARIA II flow cytometer (Becton. Dickinson) for further analysis.
(§6) The fluorescent ratio values (640/580 nm) calculated for each pH point were further used to construct calibration curve in Prism software (GraphPad Software, Inc., San Diego, Calif.), from which the pHi values in treated cells were determined (Table 3).

[3] = system: HCT116 cells; experiment: Flow cytometric measurement of intracellular pH (pHi), HCT116 expressing CAIX; format: cell-based, human; conditions: for pHi: HCT116, carboranes at 1 μM, 24 hour incubation, control 7.516; for intracellular acidification in HCT116 cells: carboranes 1 μM versus acetazolamide 50 μM
Method: as §4, §5, §6

[4] = system: CCRF-CEM; experiment: MTT cytotoxicity assay, CCRF-CEM; format: cell-based, human; conditions: 72 h
Description: as §1, §2, §3

[5] = system: HCT116p53−/−; experiment: MTT cytotoxicity assay, HCT116p53−/−; format: cell-based, human; conditions: 72 h
Description: as §1, §2, §3

[6] = system: K562-TAX; experiment: MTT cytotoxicity assay, K562-TAX; format: cell-based, human; conditions: 72 h
Description: as §1, §2, §3

[7] = system: BJ; experiment: MTT cytotoxicity assay, BJ; format: cell-based; conditions: 72 h
Description: as §1, §3

[8] = system: HCT116; experiment: MTT cytotoxicity assay, HCT116; format: cell-based, human; conditions: 72 h
Description: as §1, §2, §3

[9] = system: A549; experiment: MTT cytotoxicity assay, A549; format: cell-based, human; conditions: 72 h
Description: as §1, §2, §3

Row | Substance | IC50 [1] [µM] | pHi [2] | pHi [3] | IC50 [4] [µM] | IC50 [5] [µM] | IC50 [6] [µM] | IC50 [7] [µM] | IC50 [8] [µM] | IC50 [9] [µM] | intracellular acidification in HCT116 cells [3]
1 | 1-methylenesulfamide-1,7-dicarba-closo-dodecaborane [CB-19] | 100 ± 0.1 | 7.319 | 7.542 | 71.9 ± 3.7 | 78.3 ± 6.5 | 86.7 ± 12.7 | ≥ 100 | 89.3 ± 3.3 | ≥ 100 | 
2 | 1-methylenesulfamide-3,3′-commo-bis(1,2-dicarba-3-cobalta(III)-closo-dodecabor)ate (1-) [CB-5] |  | 7.378 | 7.483 | 85.4 ± 22.6 | 64.7 ± 9.1 | 66.4 ± 8 | ≥ 100 | 75.3 ± 4.1 | ≥ 100 | 
3 | 1-methylenesulfamide-9-phenyl-1,2-dicarba-closo-dodecaborane and 1-methylene-sulfamide-12-phenyl-1,2-dicarba-closo-dodecaborane [CB-8] | 96.8 ± 3.3 | 7.427 | 7.112 | 73.4 ± 6.8 | 86.6 ± 7.5 | 79.6 ± 10.9 | ≥ 100 | 97.4 ± 3.4 | 96 ± 6.2 | better than acetazolamide
4 | 1-methylensulfamide-1,2-dicarba-closo-dodekaborane [CB-1] | 79 ± 8.9 | 7.429 | 7.561 | 61.8 ± 10.6 | 62 ± 2.7 | 81.5 ± 11 | ≥ 100 | 63.9 ± 5.7 | 94.9 ± 4.3 | 
5 | 1-sulfamide-closo-1-carbadodecaborate (1-) [CB-3] |  | 7.362 | 7.479 | ≥ 100 | ≥ 100 | ≥ 100 | ≥ 100 | ≥ 100 | ≥ 100 | 
6 | 7-methylensulfamide-8-phenyl-(7,8-nido-dikarbaundekabor)ate (1-) [CB-6] | 98.1 ± 3 | 7.352 | 7.192 | 20.2 ± 1.7 | 24.2 ± 3.2 | 56.9 ± 15.1 | ≥ 100 | 78.4 ± 17 | 77.8 ± 10.8 | better than acetazolamide
7 | 7-methylensulfamide-(7,8-nido-dicarbaundekaborate) (1-) [CB-2] | 96.7 ± 3.8 | 7.308 | 7.572 |  |  | 99.9 ± 0.2 | ≥ 100 | ≥ 100 | ≥ 100 | 
8 | 8-butyloxysulfamide-3,3′-commo-bis(decahydro-1,2-dicarba-3-cobalta(III)-closo-dodekabor)ate (1-) [CB-16] | 95.1 ± 7.9 | 7.442 | 7.563 | 89.9 ± 6 | 78.4 ± 3.9 | 95.8 ± 4.4 | ≥ 100 | 84.8 ± 3 | ≥ 100 | 
9 | 8-diethyleneoxysulfamide-3,3′-commo-bis(decahydro-1,2-dicarba-3-cobalta(III)-closo-dodekabor)ate (1-) [CB-17] | ≥ 100 | 7.412 | 7.571 | 95.1 ± 5 | ≥ 100 | ≥ 100 | ≥ 100 | ≥ 100 | ≥ 100 | 
10 | 8-ethylaminomethylsulfamide-8″-methoxy-3,3′-commo-bis(decahydro-1,2-dicarba-3-cobalta(III)-closo-dodecabor)ate (1-) [CB-15] | 47.9 ± 7.6 | 7.472 | 7.343 | 17.3 ± 1.2 | 17.6 ± 0.9 | 16.6 ± 1.2 | 65.2 ± 4.4 | 16.6 ± 0.2 | 33.7 ± 7.7 | better than acetazolamide
11 | 8-methylensulfamide-8″-methoxy-3,3′-commo-bis(1,2-dicarba-3-cobalta(III)-closo-dodecabor)ate (1-) [CB-4] | 74.5 ± 2.8 | 7.385 | 7.538 | 61.7 ± 17.8 | 71.9 ± 3.4 | 55.2 ± 4.7 | 76.4 ± 3.3 | 69.2 ± 3 | 95.5 ± 3.7 | 
12 | 8-propylenesulfamide-7-phenyl-(7,8-nido-dicarbaundecabor)ate (1-) [CB-13] | 68 ± 1.6 | 7.452 | 7.51 | 62 ± 3 | 61.3 ± 4.9 | 64.2 ± 4.5 | 88.4 ± 6.1 | 55.5 ± 1.8 | 86.5 ± 4.6 | 
13 | 9-sulfamide-9′-amine-2,2′-commo-bis(1,7,9-trikarba-2-ferra(II)-kloso-dodekabor)ane [CB-12] | ≥ 100 | 7.395 | 7.704 | ≥ 100 | ≥ 100 | ≥ 100 | ≥ 100 | ≥ 100 | ≥ 100 | 
14 | 10-sulfamide-9′-amine-2,2′-commo-(1,7,10-tricarba-1′,7′,9′-tricarba-2-ferra (II)-closo-dodekabor)ane [CB-10] | ≥ 100 | 7.328 | 7.688 | 79.5 ± 22.7 |  | 73.6 ± 11.1 | ≥ 100 | 96.4 ± 4.5 | ≥ 100 | 
15 | Di(methylenesulfamide)-1,7-dicarba-closo-dodecaborane [CB-20] |  | 7.422 | 7.561 | 84.5 ± 5.3 | ≥ 100 | 96.3 ± 5.8 | ≥ 100 | 99.6 ± 1.1 | ≥ 100 | 
